Experimental data: US20240425491A1, “HETEROARYL COMPOUNDS USEFUL IN THE TREATMENT OF COGNITIVE DISORDERS” (University College Cardiff Consultants Limited, priority 2021, published 2024)

Tests used:
[1] = target: T1, human α5β3γ2 GABAARs in mouse L(tk−) cells (Homo sapiens, UniProt P18507+P31644); assay: In vitro electrophysiological recording assay (α5-GABAAR relative efficacy), QPatch; type: cell-based; details: for α5-GABAAR Relative Efficacy (to DMCM), Qpatch: GABA EC10-20
T1 construct: expressed in transfected cells; host or cells: mouse L(tk−) cells, dexamethasone-inducible vector pMSGneo
Text: (§1) Mouse L(tk^−) cells stably expressing human α1β3γ2, α2β3γ2, α3β3γ2, α5β3γ2 GABAARs generated by transfection of the individual subunits in the dexamethasone-inducible expression vector pMSGneo in mouse L(tk^−) cells (Hadingham et al., 1993, Mol. Pharmacol. 43:970-975 and 1993, Mol. Pharmacol. 44:1211-1218) were used for binding and functional assays. For certain compounds, HEK293 cells stable expressing the human α1β3γ2L, α2β3γ2L, α3β3γ2L and α5β3γ2L GABAA receptors were used to evaluate their functional effects in a SyncroPatch electrophysiology assay.
For QPatch electrophysiology testing, 1 μM dexamethasone was added to the culture medium of L(tk^−) cells 24 hours before the recordings were performed. Cells were typically used for electrophysiology experiments 72-96 hours after splitting.
The efficacy of modulators was evaluated using either the automated patch-clamp platform QPatch16 (Sophion, Copenhagen, Denmark) or the SyncroPatch 384i (Nanion Technologies, Germany). Cells were harvested from flasks by enzymatic dissociation and re-suspended in serum-free medium.
For QPatch recordings, all experiments were carried out at room temperature (20-22° C.) using a standard whole cell procedure and physiological solutions. Gigaseals were formed upon execution of a combined suction/voltage protocol with subsequent increased suction leading to the whole-cell configuration. The currents recorded were acquired at 1 KHz and filtered at 0.3 KHz using a Bessel filter. Whole-cell currents were measured at a holding potential of −65 mV.
For QPatch recordings, the extracellular solution contained of (in mM): 145 NaCl, 4 KCl, 1 MgCl2, 2CaCl2, 10 HEPES, 10 D-glucose (pH 7.4), and the intracellular solution consisted of (in mM): 96 KCl, 28 CsCl, 25 KOH, 4.3 CaCl2), 1.4 MgCl2, 10 EGTA, HEPES, 3 MgATP (pH 7.2). The osmolarities of the extracellular and intracellular solutions were 305 and 295 mOsm respectively.
The effects of modulators were evaluated in the presence of a submaximal GABA concentration, giving typically 10-20% activation (GABA EC10-20) of the response elicited by a saturating GABA concentration. For QPatch recordings, to check and ensure baseline current stability before compound addition, five consecutive applications of GABA EC10-20 alone (each application with a 2 s duration, separated by minimum 1 min wash off periods) were performed before compound addition. The test compound was applied using the pipetting system of the QPatch system 1 min at least prior to co-application with GABA EC10-20. For SyncroPatch recordings, GABA EC20 alone was applied three times (1 s long applications, with wash steps in-between) before compound addition. This was followed by a 1-2 min pre-incubation with the test compound and then re-application of GABA EC10-20 in the presence of the compound. Finally, following a further wash step, a saturating concentration of GABA was applied, allowing the accurate evaluation for each cell of the percentage baseline activation elicited by the submaximal GABA applied.
The compounds were first dissolved in DMSO as a 10 mM stock and then further diluted to the testing concentrations so that the final DMSO concentration in the extracellular recording solution was kept constant at 0.1% for the QPatch recordings, or 0.2% for the SyncroPatch recordings.
The % efficacy of modulators was determined from the GABA elicited currents recorded in the presence and absence of the test compound, using the formula:
[((compound peak current−leak)−(GABA peak current−leak))/(GABA peak current−leak)]*100,
where ‘leak’ is the leak baseline current at −65 mV, ‘compound peak current’ is the current elicited by co-application of compound and GABA, and ‘GABA peak current’ is the current elicited by GABA alone during the 5th GABA application. The results were presented as ‘relative efficacy’ for each compound generally at a concentration equal or higher than 100 times their determined Ki. […]

[2] = target: T2, human recombinant GABAAR containing α5β3γ2 subunits (benzodiazepine site) (Homo sapiens, UniProt P18507+P31644); assay: In vitro radioligand binding assay (α5-GABAAR Ki); details: inhibition of [3H]Ro15-1788 binding, membranes of L(tk−) cells expressing human α5β3γ2; read-out: α5-GABAAR Ki
T2 construct: expressed in transfected cells; host or cells: mouse L(tk−) cells, dexamethasone-inducible vector pMSGneo
Text: as §1
L(tk^−) cells stably expressing human α1β3γ2, α2β3γ2, α3β3γ2, α5β3γ2 GABAARs were maintained in DMEM F12 medium supplemented with 10% Foetal Bovine Serum, 1% Penicillin/Streptomycin and 1 mg/mL Geneticin G418 in an incubator at 37° C. with a humidified atmosphere with 5% CO2.
The affinity (Ki) of compounds for the benzodiazepine site of human recombinant GABAARs was measured by their ability to inhibit the binding of the selective benzodiazepine antagonist [^3H] Ro15-1788 ([^3H] flumazenil).
L(tk^−) cells expressing human recombinant GABAAR containing α1β3γ2, α2β3γ2, α3β3γ2, α5β3γ2 subunits were harvested and membranes were prepared for each receptor combination in phosphate buffer (K2PO4 10 mM, pH 7.0) (Hadingham et al. (1992) Proc. Natl. Acad. Sci. USA; 89 (14): 6378-82). Protein concentration, receptor expression and the Kd of [^3H] Ro15-1788 were determined before Ki values of compounds were evaluated. For Kd evaluation, saturation binding curves were obtained by incubating membrane with various concentrations of [^3H] Ro15-1788 (82.5 Ci/mM), with nonspecific binding measured in the presence of 1 μM TP003.
For Ki evaluation, cell membranes were incubated with 4 nM [^3H] Ro15-1788 along with a range of concentrations of test compound. Nonspecific binding was determined using 1 μM TP003. All incubations were performed for 1 hour at 4° C. in assay buffer. The total assay volume was 0.5 mL, containing 100 μg membrane protein/well α1β3γ2, α2β3γ2, α3β3γ2 and 50 μg membrane protein/well for α53γ2. Incubations were terminated by filtration and washing with ice cold Tris-HCl buffer (50 mM, pH=7.4) over Whatman GF/B filters and the radioactivity of the filters was measured using liquid scintillation counting.
The % inhibition of [^3H] Ro15-1788 binding was plotted as a function of compound concentration and the IC50 calculated. From the IC50, the affinity (Ki) was calculated using the method of Cheng and Prusoff using the Kd values obtained for [^3H] Ro15-1788.

T2 sequence (P31644 32-462): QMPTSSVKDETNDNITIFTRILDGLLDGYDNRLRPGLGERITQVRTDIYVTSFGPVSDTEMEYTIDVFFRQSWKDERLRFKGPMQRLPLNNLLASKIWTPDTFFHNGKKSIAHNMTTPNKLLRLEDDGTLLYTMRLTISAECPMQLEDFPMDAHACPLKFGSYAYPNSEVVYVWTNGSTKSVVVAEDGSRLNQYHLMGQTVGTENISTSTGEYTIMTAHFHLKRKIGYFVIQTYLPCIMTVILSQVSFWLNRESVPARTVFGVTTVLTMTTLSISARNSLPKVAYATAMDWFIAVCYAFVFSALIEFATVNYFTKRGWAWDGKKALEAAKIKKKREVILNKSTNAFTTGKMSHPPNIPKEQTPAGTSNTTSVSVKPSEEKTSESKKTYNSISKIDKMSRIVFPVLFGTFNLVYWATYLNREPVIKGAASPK
T2 sequence (P28472 26-473 partner): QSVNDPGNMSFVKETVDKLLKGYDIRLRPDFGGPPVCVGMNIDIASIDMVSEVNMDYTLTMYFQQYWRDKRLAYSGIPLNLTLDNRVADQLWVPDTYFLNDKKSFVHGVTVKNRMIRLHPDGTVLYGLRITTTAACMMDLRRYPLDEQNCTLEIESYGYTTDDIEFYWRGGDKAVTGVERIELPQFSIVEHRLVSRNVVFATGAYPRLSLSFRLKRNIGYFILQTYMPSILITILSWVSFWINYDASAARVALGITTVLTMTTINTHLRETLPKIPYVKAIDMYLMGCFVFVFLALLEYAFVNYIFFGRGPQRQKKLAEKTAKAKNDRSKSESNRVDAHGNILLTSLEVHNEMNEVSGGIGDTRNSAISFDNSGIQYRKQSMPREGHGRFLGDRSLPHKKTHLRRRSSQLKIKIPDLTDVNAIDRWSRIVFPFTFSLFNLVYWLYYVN
T2 sequence (P18507 40-475): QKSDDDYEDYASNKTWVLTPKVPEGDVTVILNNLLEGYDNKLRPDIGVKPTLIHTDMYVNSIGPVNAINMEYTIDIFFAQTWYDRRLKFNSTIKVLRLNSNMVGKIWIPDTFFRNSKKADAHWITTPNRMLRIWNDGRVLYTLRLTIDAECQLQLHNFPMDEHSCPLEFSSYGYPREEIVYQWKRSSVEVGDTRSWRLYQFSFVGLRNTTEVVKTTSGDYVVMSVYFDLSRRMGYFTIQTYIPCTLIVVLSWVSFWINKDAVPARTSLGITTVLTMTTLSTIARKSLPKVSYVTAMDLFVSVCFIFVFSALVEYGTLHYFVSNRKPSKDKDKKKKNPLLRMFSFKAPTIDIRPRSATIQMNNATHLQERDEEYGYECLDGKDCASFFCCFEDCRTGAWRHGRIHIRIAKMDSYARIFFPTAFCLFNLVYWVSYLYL
T1 sequence (P31644 32-462): as the sequence (P31644 32-462) above
T1 sequence (P28472 26-473 partner): as the sequence (P28472 26-473 partner) above
T1 sequence (P18507 40-475): as the sequence (P18507 40-475) above

Structure (SMILES) | Ki [2] | α5-GABAAR Relative Efficacy (to DMCM), Qpatch ([1]; Conc 1 μM) | further results
CCc1c(C(=O)OC)ncc2[nH]c3cc(OC)c(OC)cc3c12 [DMCM, methyl-6,7-dimethoxy-4-ethyl-beta-carboline-3-carboxylate, reference compound] |  |  | attenuation of GABA-induced currents (efficacy) ([1]; n=5, reference for normalising relative efficacy): −57±4%
COc1nc(-n2ccnc2)ncc1NC(=O)c1c(-c2ccccc2)noc1C [Example 3, N-(2-Imidazol-1-yl-4-methoxy-pyrimidin-5-yl)-5-methyl-3-phenyl-isoxazole-4-carboxamide] | 32.8 nM | −0.69 | 
COc1cc(-n2ccnc2)ccc1NC(=O)c1c(C)nnn1-c1ccccc1 [Example 5, N-(4-(1H-Imidazol-1-yl)-2-methoxyphenyl)-4-methyl-1-phenyl-1H-1,2,3-triazole-5-carboxamide] | 50.7 nM | −0.82 | 
COc1nc(-c2c(C)noc2C)ccc1NC(=O)c1c(-c2ccccc2)noc1C [Example 6, N-[6-(3,5-Dimethylisoxazol-4-yl)-2-methoxy-3-pyridyl]-5-methyl-3-phenyl-isoxazole-4-carboxamide] | 33.1 nM |  | α5-GABAAR Relative Efficacy (to DMCM), Qpatch ([1]; Conc 10 μM): −0.22
COc1cc(-c2cnn(C)c2)ccc1NC(=O)c1c(-c2ccccc2)noc1C [Example 12, N-[2-Methoxy-4-(1-methylpyrazol-4-yl)phenyl]-5-methyl-3-phenyl-isoxazole-4-carboxamide] | 17.1 nM |  | α5-GABAAR Relative Efficacy (to DMCM), Qpatch ([1]; Conc 3 μM): −0.68
COc1cc(-c2cncnc2)ccc1NC(=O)c1c(-c2ccccc2)noc1C [Example 13, N-(2-Methoxy-4-pyrimidin-5-yl-phenyl)-5-methyl-3-phenyl-isoxazole-4-carboxamide] | 3.6 nM | −0.85 | 
COc1cc(-c2c(C)noc2C)cnc1NC(=O)c1c(-c2ccccc2)noc1C [Example 14, N-[5-(3,5-Dimethylisoxazol-4-yl)-3-methoxy-2-pyridyl]-5-methyl-3-phenyl-isoxazole-4-carboxamide] | 50 nM |  | α5-GABAAR Relative Efficacy (to DMCM), Qpatch ([1]; Conc 10 μM): −0.24
COc1cc(-c2cnn(C)c2)cnc1NC(=O)c1c(-c2ccccc2)noc1C [Example 15, N-[3-Methoxy-5-(1-methylpyrazol-4-yl)-2-pyridyl]-5-methyl-3-phenyl-isoxazole-4-carboxamide] | 7 nM | −0.19 | 
COc1nc(-c2cnc(C3CC3)nc2)ccc1NC(=O)c1c(-c2ccccc2)noc1C [Example 17, N-[6-(2-Cyclopropylpyrimidin-5-yl)-2-methoxy-3-pyridyl]-5-methyl-3-phenyl-isoxazole-4-carboxamide] | 10.8 nM |  | α5-GABAAR Relative Efficacy (to DMCM), Qpatch ([1]; Conc 3 μM): −0.81
COc1nc(-c2cnn(C)c2)cnc1NC(=O)c1c(-c2ccccc2)noc1C [Example 19, N-[3-Methoxy-5-(1-methylpyrazol-4-yl)pyrazin-2-yl]-5-methyl-3-phenyl-isoxazole-4-carboxamide] | 4.3 nM | −0.86 | 
COc1nc(-c2cn(C)nc2C)ccc1NC(=O)c1c(-c2ccccc2)noc1C [Example 20, N-[6-(1,3-Dimethylpyrazol-4-yl)-2-methoxy-3-pyridyl]-5-methyl-3-phenyl-isoxazole-4-carboxamide] | 13.9 nM |  | α5-GABAAR Relative Efficacy (to DMCM), Qpatch ([1]; Conc 3 μM): −0.28
COc1nc(-c2cnn(C(C)C)c2)ccc1NC(=O)c1c(-c2ccccc2)noc1C [Example 21, N-[6-(1-Isopropylpyrazol-4-yl)-2-methoxy-3-pyridyl]-5-methyl-3-phenyl-isoxazole-4-carboxamide] | 20.5 nM |  | α5-GABAAR Relative Efficacy (to DMCM), Qpatch ([1]; Conc 3 μM): −0.48
COc1nc(-c2c(C)nn(C)c2C)ccc1NC(=O)c1c(-c2ccccc2)noc1C [Example 22, N-[2-Methoxy-6-(1,3,5-trimethylpyrazol-4-yl)-3-pyridyl]-5-methyl-3-phenyl-isoxazole-4-carboxamide] | 15.8 nM |  | α5-GABAAR Relative Efficacy (to DMCM), Qpatch ([1]; Conc 3 μM): 0.15

Now from value to compound, other results behind:

Ki [2] | α5-GABAAR Relative Efficacy (to DMCM), Qpatch ([1]; Conc 1 μM) | Structure (SMILES) | further results
2.4 nM | −0.54 | COc1cc(-n2ccnc2)ccc1NC(=O)c1c(-c2ccccc2)noc1C [Example 2, N-(4-Imidazol-1-yl-2-methoxy-phenyl)-5-methyl-3-phenyl-isoxazole-4-carboxamide] | 
2 nM |  | COc1nc(-c2cncnc2)ccc1NC(=O)c1c(-c2ccccc2)noc1C [Example 7, N-(2-Methoxy-6-pyrimidin-5-yl-3-pyridyl)-5-methyl-3-phenyl-isoxazole-4-carboxamide] | α5-GABAAR Relative Efficacy (to DMCM), Qpatch ([1]; Conc 0.3 μM): −0.77
3.2 nM | −0.21 | COc1cc(-c2cncnc2)cnc1NC(=O)c1c(-c2ccccc2)noc1C [Example 9, N-(3-Methoxy-5-pyrimidin-5-yl-2-pyridyl)-5-methyl-3-phenyl-isoxazole-4-carboxamide] | 
2.9 nM |  | COc1nc(-c2cncc(N)c2)ccc1NC(=O)c1c(-c2ccccc2)noc1C [Example 11, N-[6-(5-Amino-3-pyridyl)-2-methoxy-3-pyridyl]-5-methyl-3-phenyl-isoxazole-4-carboxamide] | α5-GABAAR Relative Efficacy (to DMCM), Qpatch ([1]; Conc 0.3 μM): −0.84
2.8 nM |  | COc1cc(-c2cn[nH]c2)cnc1NC(=O)c1c(-c2ccccc2)noc1C [Example 18, N-[3-Methoxy-5-(1H-pyrazol-4-yl)-2-pyridyl]-5-methyl-3-phenyl-isoxazole-4-carboxamide] | α5-GABAAR Relative Efficacy (to DMCM), Qpatch ([1]; Conc 0.3 μM): −0.61
2.4 nM |  | COc1nc(-c2ccnn2C)ccc1NC(=O)c1c(-c2ccccc2)noc1C [Example 23, N-[2-Methoxy-6-(2-methylpyrazol-3-yl)-3-pyridyl]-5-methyl-3-phenyl-isoxazole-4-carboxamide] | α5-GABAAR Relative Efficacy (to DMCM), Qpatch ([1]; Conc 0.3 μM): −0.46
